Laboratory results as given in US4629627A, “Antiviral substance and the manufacturing method thereof” (priority 1978, dated 1986).

Experiments:
liver cancer in rats [1] = conditions: rat's liver; cited from earlier work
liver cancer in rats [2] = experiment: Experiment 3: depression of liver cancer induced by 3'-Me-DAB in rats; assay type: in vivo, Wister male rats
Source text: The present inventor asked Prof. Nobuhiko Kanno, Biological Laboratory, Dept. of Pharmacology, Toyama Medical and Pharmacologival University, to test the activity of the present antiviral substance to depress the liver cancer in rats on pathogens of viruses.
1. Test animals: Wister male rats of 4 weeks of age were fed for 5 days as usual and tested.
2. Carcinogenic substance: 3'-methyl-4-dimethyl amino azobenzene (3'-Me-DAB) [drawing 1]
(1) Control group: standard food
(2) L group: standard food+L
(3) L+DAB group 0.06% 3'-Me-DAB containing food+L
(4) DAB group 0.06% 3'-Me-DAB containing food
Note: L: a frozen dry powder of the extract of the nutrient medium and tissue-medium of Lentinus edodes DAB: 3'-Me-DAB
4. Quantity and the method of giving the freeze-dried powder of the extract of the nutrient medium and tissue-medium of Lentinus edodes […]
The freeze-dried powder of the nutrient medium and tissue-medium of Lentinus edodes was dissolved in physiological salt water, and given intraperitoneally; the same dose of physiological salt water was similarly given to the control group.

Cc1cccc(N=Nc2ccc(N(C)C)cc2)c1 [3'-Me-DAB, 3'-methyl-4-dimethyl amino azobenzene]
carcinogenic property (liver cancer in rats [1]): specific and strong carcinogenic property | liver finding at autopsy (liver cancer in rats [2]; dissection, after 14 and 18 weeks): fine yellowish white particles which seemed to be cancerous tissue were seen all over the liver | microscopic findings of the liver tissue (liver cancer in rats [2]; hematoxin-eosin): severe disarrangement of cells and the glandular structure specific to liver cancer (adeno carcinoma) | depilation (liver cancer in rats [2]; microscopic observation, within about 5 and 15 weeks): depilation appeared on the abdomen in some a rats
